Data on 21 compounds can be found in ChEMBL document CHEMBL1909046, “DrugMatrix in vitro pharmacology data”.

The IC50 is the concentration at which inhibition is half-maximal. By Ki is commonly meant a dissociation constant, usually derived from enzyme kinetics or from competition with a known ligand.

The nature of assay [1]: DRUGMATRIX: Imidazoline I2, Central radioligand binding (ligand: [3H] Idazoxan). Particulars: Not Active = under 50% inhibition at 10 µM. Type of assay: cell membranes, Rattus norvegicus, Wistar, Cerebral cortex, Membrane.
For another assay, the target named is T1, Substance-K receptor (Homo sapiens, UniProt P21452). Further: in other assays of this panel Not Active means under 50% inhibition at 10 µM.
T1 sequence (P21452 whole entry): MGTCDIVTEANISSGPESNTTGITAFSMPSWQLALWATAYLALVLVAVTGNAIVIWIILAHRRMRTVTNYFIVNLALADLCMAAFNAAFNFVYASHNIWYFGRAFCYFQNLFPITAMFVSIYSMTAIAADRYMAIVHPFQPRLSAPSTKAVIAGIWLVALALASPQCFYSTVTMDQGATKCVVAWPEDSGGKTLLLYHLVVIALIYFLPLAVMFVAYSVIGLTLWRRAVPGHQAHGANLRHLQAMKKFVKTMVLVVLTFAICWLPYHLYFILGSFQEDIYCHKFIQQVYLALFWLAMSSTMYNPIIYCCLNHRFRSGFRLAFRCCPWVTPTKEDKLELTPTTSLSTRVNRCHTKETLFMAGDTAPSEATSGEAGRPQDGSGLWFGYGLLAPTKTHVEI
Type of assay: cell membranes, CHO, Membrane.

Another assay concerns the target Glycine receptor (Rattus norvegicus, UniProt P22771+P24524+P07727+P20781). Type of assay: cell membranes, Wistar, Spinal cord, Membrane. Further: in other assays of this panel Not Active means under 50% inhibition at 10 µM.
Assay [2] addresses Protein phosphatase 3 catalytic subunit alpha (Homo sapiens, UniProt Q08209). Also on record: species or system Escherichia coli.
The target of assay [3] is T2, Receptor-type tyrosine-protein phosphatase C (Homo sapiens, UniProt P08575).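 Further: inhibition of CD45 enzyme activity measured using DiFMUP as substrate; in other assays of this panel Not Active means under 50% inhibition at 10 µM.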
T2 sequence (P08575 whole entry): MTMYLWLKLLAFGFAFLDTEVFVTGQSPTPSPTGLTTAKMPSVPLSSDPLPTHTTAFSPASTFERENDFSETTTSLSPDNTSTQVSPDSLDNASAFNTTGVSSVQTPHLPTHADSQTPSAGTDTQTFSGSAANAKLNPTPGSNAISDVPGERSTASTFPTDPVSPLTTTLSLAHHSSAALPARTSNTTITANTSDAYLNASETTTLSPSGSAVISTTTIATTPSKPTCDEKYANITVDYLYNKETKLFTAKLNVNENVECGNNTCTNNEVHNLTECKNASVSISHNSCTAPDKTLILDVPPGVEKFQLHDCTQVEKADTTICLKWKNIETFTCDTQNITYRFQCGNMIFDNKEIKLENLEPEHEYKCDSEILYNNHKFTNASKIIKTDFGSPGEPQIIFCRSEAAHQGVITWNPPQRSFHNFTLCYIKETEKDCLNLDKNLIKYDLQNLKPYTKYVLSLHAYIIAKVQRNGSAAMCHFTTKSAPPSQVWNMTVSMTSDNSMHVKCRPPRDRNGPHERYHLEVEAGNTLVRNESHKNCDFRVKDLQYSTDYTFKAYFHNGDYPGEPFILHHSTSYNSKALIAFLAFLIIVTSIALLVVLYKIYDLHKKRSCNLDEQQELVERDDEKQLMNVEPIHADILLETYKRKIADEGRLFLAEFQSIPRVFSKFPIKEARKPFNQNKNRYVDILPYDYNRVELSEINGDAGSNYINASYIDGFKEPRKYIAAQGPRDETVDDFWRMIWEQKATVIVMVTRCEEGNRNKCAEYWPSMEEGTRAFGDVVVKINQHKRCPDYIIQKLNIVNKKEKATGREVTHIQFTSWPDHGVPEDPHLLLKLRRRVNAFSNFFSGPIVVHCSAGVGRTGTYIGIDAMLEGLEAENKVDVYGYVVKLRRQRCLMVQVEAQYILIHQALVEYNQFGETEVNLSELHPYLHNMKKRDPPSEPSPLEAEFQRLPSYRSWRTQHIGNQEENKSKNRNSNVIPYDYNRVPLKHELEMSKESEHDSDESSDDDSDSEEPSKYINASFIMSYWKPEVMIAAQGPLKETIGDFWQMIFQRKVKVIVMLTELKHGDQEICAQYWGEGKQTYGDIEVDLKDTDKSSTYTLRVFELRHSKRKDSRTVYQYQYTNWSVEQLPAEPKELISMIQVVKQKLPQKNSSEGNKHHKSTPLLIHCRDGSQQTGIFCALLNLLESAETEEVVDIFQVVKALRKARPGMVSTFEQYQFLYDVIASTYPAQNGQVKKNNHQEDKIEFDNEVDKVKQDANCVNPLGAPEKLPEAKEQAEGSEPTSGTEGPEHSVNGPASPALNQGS
Also on record: species or system Escherichia coli.

For a further assay, the target named is Mu-type opioid receptor (Homo sapiens, UniProt P35372). In words: DRUGMATRIX: Opiate mu (OP3, MOP) radioligand binding (ligand: [3H] Diprenorphine). The note with it: Not Active = under 50% inhibition at 10 µM. The assay is classed as cell membranes, CHO-K1, Membrane.
Sequence of Mu-type opioid receptor (P35372 whole entry): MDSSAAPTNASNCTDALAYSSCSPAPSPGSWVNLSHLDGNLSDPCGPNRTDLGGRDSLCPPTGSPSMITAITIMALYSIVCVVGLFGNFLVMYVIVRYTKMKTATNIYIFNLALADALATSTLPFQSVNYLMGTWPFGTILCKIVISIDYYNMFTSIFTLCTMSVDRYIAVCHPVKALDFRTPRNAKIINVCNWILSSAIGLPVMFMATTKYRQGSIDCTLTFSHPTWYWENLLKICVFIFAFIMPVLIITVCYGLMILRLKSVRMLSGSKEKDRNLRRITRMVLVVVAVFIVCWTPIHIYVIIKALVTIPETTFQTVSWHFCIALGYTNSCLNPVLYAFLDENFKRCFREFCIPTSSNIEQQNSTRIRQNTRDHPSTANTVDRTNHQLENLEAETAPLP

Regarding `Cc1c(C)c2c(c(C)c1O)CCC(C)(CN1CCN(c3cc(N4CCCC4)nc(N4CCCC4)n3)CC1)O2` (stereo not given), the concentration for half-maximal inhibition (IC50) entry in assay [1] was “Not Active”; at Substance-K receptor (cho), “Not Active”; at Glycine receptor it was “Not Active”; in assay [2] it was “Not Active”; in assay [3] it was “Not Active”; on Mu-type opioid receptor (read-out: IC50), 10.7 µM. Also, the results for the inhibition constant (Ki) entry (in assay [1]; at Mu-type opioid receptor) were “Not Active” and 4.36 µM, respectively.
Take `COc1ccc(CCN(C)CCCC(C#N)(c2ccc(OC)c(OC)c2)C(C)C)cc1OC` (stereo not given): the concentration for half-maximal inhibition (IC50) in assay [1] (read-out: IC50) is 5.52 µM; on Substance-K receptor (cho) it was “Not Active”; on Glycine receptor, “Not Active”; in assay [2] it was “Not Active”; in assay [3], “Not Active”; at Mu-type opioid receptor (cho-k1), “Not Active”. In assay [1] (read-out: Ki), the Ki was determined as 3.68 µM.
Regarding `CC(C)Cc1ccc([C@@H](C)C(=O)O)cc1` [(R)-IBUPROPHEN], the half-inhibitory concentration (IC50) result (in assay [1]; on Substance-K receptor (cho); on Glycine receptor; in assay [2]; in assay [3]; at Mu-type opioid receptor (cho-k1)) was “Not Active” throughout. In addition, in assay [1], the Ki entry is recorded as “Not Active”.
`CN(C)CCOC(c1ccccc1)c1ccccc1` [DIPHENHYDRAMINE]: the 50% inhibitory concentration (IC50) result (at Substance-K receptor (cho); against Glycine receptor; in assay [2]; in assay [3]; on Mu-type opioid receptor (cho-k1)) was “Not Active” each time.
In the case of `Clc1ccc(COC(Cn2ccnc2)c2ccc(Cl)cc2Cl)cc1` (stereo not given) [ECONAZOLE], the IC50 at Substance-K receptor (read-out: IC50) is 6.03 µM; against Glycine receptor it was “Not Active”; in assay [2], “Not Active”; in assay [3], “Not Active”. The inhibitory constant (Ki) at Substance-K receptor (read-out: Ki) amounted to 2010 nM.
With `CCN(CC)CCOc1ccc(/C(=C(/Cl)c2ccccc2)c2ccccc2)cc1` [ENCLOMIPHENE], the half-maximal inhibitory concentration (IC50) is 4.52 µM at Substance-K receptor (read-out: IC50); “Not Active” on Glycine receptor; “Not Active” in assay [2]; “Not Active” in assay [3]; “Not Active” at Mu-type opioid receptor (cho-k1). Besides, at Substance-K receptor (read-out: Ki), the Ki came to 1510 nM.
For the compound `Fc1ccc(C(c2ccc(F)cc2)N2CCN(C/C=C/c3ccccc3)CC2)cc1` [FLUNARIZINE], the IC50 result at Substance-K receptor (cho) was “Not Active”; on Glycine receptor it was “Not Active”; in assay [2], “Not Active”; in assay [3] it was “Not Active”; at Mu-type opioid receptor (read-out: IC50), 5.24 µM. For the same compound, the affinity at Mu-type opioid receptor corresponds to a Ki of 2.12 µM.
Regarding `CNCCC(Oc1ccc(C(F)(F)F)cc1)c1ccccc1` (stereo not given) [FLUOXETINE], the IC50 result (against Substance-K receptor (cho); at Glycine receptor; in assay [2]; in assay [3]; at Mu-type opioid receptor (cho-k1)) was “Not Active” each time.
As to `Cc1ccc(NC(=O)c2ccc(CN3CCN(C)CC3)cc2)cc1Nc1nccc(-c2cccnc2)n1` [IMATINIB], the IC50 result (against Substance-K receptor (cho); against Glycine receptor; in assay [2]; in assay [3]; on Mu-type opioid receptor (cho-k1)) was “Not Active” each time.
Consider `CC(C)Oc1ccc2c(=O)c(-c3ccccc3)coc2c1` [IPRIFLAVONE], for which the IC50 result (in assay [1]; against Substance-K receptor (cho); on Glycine receptor; in assay [2]; in assay [3]; at Mu-type opioid receptor (cho-k1)) was “Not Active” in each case. Further, the Ki entry in assay [1] is “Not Active”.
Take `CC(C)NCC(O)c1ccc(O)c(O)c1` (stereo not given) [ISOPROTERENOL]: the half-maximal inhibitory concentration (IC50) result (in assay [1]; against Substance-K receptor (cho); on Glycine receptor; in assay [2]; in assay [3]; at Mu-type opioid receptor (cho-k1)) was “Not Active” each time. Also, the Ki result in assay [1] is given as “Not Active”.
With `CNC1(c2ccccc2Cl)CCCCC1=O` (stereo not given) [KETAMINE], the IC50 result (in assay [1]; on Substance-K receptor (cho); at Glycine receptor; in assay [2]; in assay [3]; on Mu-type opioid receptor (cho-k1)) was “Not Active” throughout. Further, the inhibition constant (Ki) entry in assay [1] was “Not Active”.
On to `N#Cc1ccc(C(c2ccc(C#N)cc2)n2cncn2)cc1` [LETROZOLE], for which the IC50 entry (in assay [1]; on Substance-K receptor (cho); at Glycine receptor; in assay [2]; in assay [3]; on Mu-type opioid receptor (cho-k1)) was “Not Active” in each case. Moreover, the Ki entry in assay [1] is reported as “Not Active”.
Turning to `CCN1CCC[C@H]1CNC(=O)c1cc(S(N)(=O)=O)ccc1OC` [LEVOSULPIRIDE], the IC50 entry (in assay [1]; against Substance-K receptor (cho); against Glycine receptor; in assay [2]; in assay [3]; on Mu-type opioid receptor (cho-k1)) was “Not Active” in each case. Moreover, the inhibition constant (Ki) entry in assay [1] is listed as “Not Active”.
For `CCN(CC)CC(=O)Nc1c(C)cccc1C` [LIDOCAINE], the half-inhibitory concentration (IC50) entry (in assay [1]; on Substance-K receptor (cho); against Glycine receptor; in assay [2]; in assay [3]; on Mu-type opioid receptor (cho-k1)) was “Not Active” each time. In addition, the inhibition constant (Ki) result in assay [1] is on record as “Not Active”.
Consider `O=C1Nc2ccc(Cl)cc2C(c2ccccc2Cl)=NC1O` (stereo not given) [LORAZEPAM], for which the IC50 entry (in assay [1]; against Substance-K receptor (cho); on Glycine receptor; in assay [2]; in assay [3]; on Mu-type opioid receptor (cho-k1)) was “Not Active” each time. Moreover, the inhibition constant (Ki) entry in assay [1] is “Not Active”.
Turning to `CC[C@@H](C(=O)[C@@H](C)[C@@H](O)[C@H](C)[C@@H]1O[C@@H]([C@@H](CC)C(=O)O)CC[C@@H]1C)[C@H]1O[C@]2(C=C[C@@H](O)[C@]3(CC[C@@](C)([C@H]4CC[C@](O)(CC)[C@H](C)O4)O3)O2)[C@H](C)C[C@@H]1C` [SALINOMYCIN], the IC50 entry (in assay [1]; at Substance-K receptor (cho); at Glycine receptor; in assay [2]; in assay [3]) was “Not Active” throughout. Moreover, in assay [1], the Ki entry is recorded as “Not Active”.
As to `CN[C@H]1CC[C@@H](c2ccc(Cl)c(Cl)c2)c2ccccc21` [SERTRALINE], the half-maximal inhibitory concentration (IC50) result (on Substance-K receptor (cho); at Glycine receptor; in assay [2]; in assay [3]; at Mu-type opioid receptor (cho-k1)) was “Not Active” each time.
On to `O=C(Nc1ccc(Br)cc1)c1cc(Br)cc(Br)c1O` [TRIBROMSALAN], for which the IC50 entry (in assay [1]; at Substance-K receptor (cho); on Glycine receptor; in assay [2]; in assay [3]) was “Not Active” throughout. Moreover, in assay [1], the Ki result is given as “Not Active”.
Regarding MANGANESE CHLORIDE ANHYDROUS, the half-maximal inhibitory concentration (IC50) entry (in assay [1]; against Substance-K receptor (cho); at Glycine receptor; in assay [2]; in assay [3]) was “Not Active” throughout. In addition, the inhibition constant Ki result (in assay [1]; on Substance-K receptor (cho); on Glycine receptor; in assay [2]; in assay [3]) was “Not Active” throughout.
Take SODIUM ORTHOVANAD: the IC50 result (in assay [1]; against Substance-K receptor (cho); against Glycine receptor; in assay [2]; in assay [3]) was “Not Active” in each case. The Ki result (in assay [1]; on Substance-K receptor (cho); at Glycine receptor; in assay [2]; in assay [3]) was “Not Active” throughout.
